Assay results published in US6512007B1, “Use of galiella lactone” (Bayer Aktiengesellschaft, priority 2000, dated 2003).

How the values were obtained:
[1] = tested on: IL-6-induced and Stat3-mediated SEAP synthesis; assay: Inhibition of IL-6- and Stat3-mediated SEAP reporter gene expression in HepG2 cells; type: cell-based; details: Homo sapiens; HepG2, induction with IL-6 10 ng/ml, 24 h; read-out: concentration for half-maximal SEAP synthesis inhibition (IC50)
Description: The following bioassay was carried out for fundamental exemplary experiments for detecting the inhibition of IL-6- and Stat3-mediated gene expression:
The initial vector used was the vector pTK/SEAP (Biochem. Biophys. Res. Commun., 1996, 226: 214-21) (see FIG. 1) which contains the gene of secreted alkaline phosphatase (SEAP) as reporter gene. This vector was linearized with the restriction enzyme Nhel and then dephosphorylated. The following oligonucleotides
which contain a binding site for Stat3 and Stat1 proteins (cf. Proc. Natl. Acad. Sci. USA, 1995, 92: 3041-5) were phosphorylated, ligated and precipitated with ethanol. […]
The HepG2 cells were cultivated in a moist atmosphere with 5% CO2 at 37° C. in 50 ml of DMEM (Gibco BRL, Life Technologies GmbH. Dieselstr, 5, 76344 Eggenstein) with 10% fetal calf serum, and penicillin/streptomycin (100 iu) in 600 ml cell culture bottles. […] The cell count was determined using a counting chamber and was adjusted to 6-8×10^6 cells/ml. […]
Cytotoxic effects of the compounds on the cells were investigated by microscopy after 24 h. Likewise after 24 h. the SEAP activity was determined using the Phospha-Light™ chemoluminescence assay (Perkins-Elmer Applied Biosystems, Langen) and, under the chosen conditions, is directly proportional to the SEAP concentration in the analysed sample. […]

activated Stat3 dimers = target: T1, activated Stat3 dimers (Homo sapiens, UniProt P40763); assay: Electrophoretic mobility shift assay: DNA binding of activated Stat3 dimers to m67SIE probe; details: 16 ng/ml (82 nM), HepG2
T1 construct: Probe used: m67SIE, induction time 20 minutes: cell line: HepG2; endogenous in cells; host or cells: HepG2 (cell extract)
T1 sequence (P40763 2-770 limits assumed): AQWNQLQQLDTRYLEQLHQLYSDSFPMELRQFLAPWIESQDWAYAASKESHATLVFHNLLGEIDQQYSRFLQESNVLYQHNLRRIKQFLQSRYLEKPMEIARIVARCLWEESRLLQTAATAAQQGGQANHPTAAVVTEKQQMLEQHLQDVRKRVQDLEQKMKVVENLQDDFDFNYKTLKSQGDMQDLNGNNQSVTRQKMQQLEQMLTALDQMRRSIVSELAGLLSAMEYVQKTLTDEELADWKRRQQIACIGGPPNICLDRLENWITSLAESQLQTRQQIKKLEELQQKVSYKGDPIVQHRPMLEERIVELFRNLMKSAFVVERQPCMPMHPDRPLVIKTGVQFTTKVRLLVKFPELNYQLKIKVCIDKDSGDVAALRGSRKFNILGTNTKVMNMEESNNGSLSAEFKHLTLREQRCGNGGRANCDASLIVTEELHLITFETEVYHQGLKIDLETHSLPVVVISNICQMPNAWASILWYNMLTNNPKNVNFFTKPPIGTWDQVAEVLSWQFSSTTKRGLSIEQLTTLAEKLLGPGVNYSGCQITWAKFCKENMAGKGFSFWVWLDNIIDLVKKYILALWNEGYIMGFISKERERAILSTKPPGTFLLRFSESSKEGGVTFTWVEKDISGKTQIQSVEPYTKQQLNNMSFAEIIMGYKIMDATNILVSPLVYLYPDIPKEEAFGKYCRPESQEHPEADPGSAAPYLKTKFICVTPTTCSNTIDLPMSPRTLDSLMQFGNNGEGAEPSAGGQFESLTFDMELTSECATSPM
From the text: The DNA binding of activated Stat3 dimers to their binding sites in the promoters of the target genes is the basic requirement for transcriptional activation of these genes. At the same time, this step is specific for Stat3, i.e. inhibition of this step would result in specific inhibition of IL-6-induced and Stat3-mediated expression of the target genes without simultaneously affecting other signal cascades. The effect of the various compounds on the DNA binding ability of the phosphorylated and thus activated Stat3 dimers was analysed by carrying out electrophoretic mobility shift assays (EMSAs, gel shift assays).
The procedure was as described in Nature, 1993, 362: 79-83 and Mol. Cell Biol, 1998, 18: 2108-17. The DNA probe used was the ^32P-labelled, double-stranded oligonucleotide with the m67SIE recognition sequence (S2) (wild-type) (cf. EMBO J. 1995, 14: 1421-9)
It was possible to show with control mixtures in which the induced control was preincubated with phospho-Stat3 (tyrosine 705)-specific antibodies that it is Stat3 phosphorylated on the tyrosine 705 residue which binds to the m67SIE probe (see FIG. 6).
Effect of galiella lactone on the binding of activated Stat3 dimers to their DNA recognition sequence. Probe used: m67SIE, induction time 20 minutes: cell line: HepG2.

Solubility in solvents = type: physicochemical
From the text: Galiella lactone has the physical and chemical properties described hereinafter. […] It was possible with the aid of the mass spectra (Table 1) to establish firstly the molecular weight of 194 Da and then the molecular formula of C11H14O3.

- IC50 [1]: 50 to 100 nM
- binding of the activated Stat3 dimers to their recognition sequence (activated Stat3 dimers): completely inhibits
- solubility in nonpolar solvents (Solubility in solvents; cyclohexane, n-pentane, n-hexane): scarcely soluble
- solubility in polar solvents (Solubility in solvents; methanol, pyridine, ethyl acetate, acetonitrile, TBME, THF and water): readily soluble
SMILES: C[C@H]1C=C2C(=O)O[C@H]3CC[C@@H](C1)[C@@]23O [galiella lactone]
